Test results published in patent US10973863B2, “Method for regulating, preventing and/or treating pulmonary injury” (SINPHAR PHARMACEUTICAL CO., LTD., priority 2017, dated 2021).

Tested on: TGFβ-induced intracellular accumulation of collagen in myofibroblast WI38 cells
Test: Picrosirius red staining: TGFβ-induced collagen accumulation in WI38 cells
Type: cell-based
Conditions: Table 7, 1 ng/mL TGF-β, 24 hours
Source text: As indicated above, the hyperactive expression of MMPs will cause pulmonary injury. Under the most circumstances, the response mechanisms in animals will activate, for example, macrophages will secret TGF-β and TGF-β which can promote the lung fibroblasts to secret collagen, so that the damaged tissues can be recovered. However, the hypersecretion of collagen will also lead to lung fibrosis. To investigate whether FU-LING extracts and its active ingredients are effective in regulating, protecting and/or treating the pulmonary injury-related diseases such as lung fibrosis or not, the Picrosirius red (PSR) staining was conducted as a semi-quantification of collagen, so that the inhibitory rate of FU-LING extract and its active ingredients on the TGFβ-induced intracellular accumulation of collagen in myofibroblast WI38 cells can be determined.
Myofibroblast WI38 cells (purchased from ATCC, product no. CCL75™) were divided into ten groups and separately cultivated with the following media for 48 hours:
(1) Blank group: a myolibroblast growth medium;
(2) Control group: a myofibroblast growth medium containing 1 ng/mL TGF-β (purchased from R&D system);
(3) Positive control group: a myofibroblast growth medium containing 1 ng/mL TGF-β and 200 μg/mL Pirfenidone (abbreviated as “Pir”; purchased from Sigma-Aldrich);
(4) Extract A (including four sub-groups): a myofibroblast growth medium containing 1 ng/mL TGF-β and the extract A provided by [Preparation example A-2-2], wherein the extract A is present in the four sub-groups at a concentration of 12.5, 25, 50 and 100 μg/mL respectively; and
(5) Extract B (including three sub-groups): a myofibroblast growth medium containing 1 ng/ml, TGF-β and the extract B provided by [Preparation example A-2-3], wherein the extract B is present in the […] at a concentration of 12.5, 25 and 50 μg/mL respectively.
Thereafter, the media were replaced by methanol to fix the cells at a temperature of −20° C. for 1 to 2 hours. After that, the cells were washed with PBS, and then stained with 0.1% PSR staining agent (purchased from Sigma-Aldrich) at room temperature for 4 hours. The stained cells were washed with 0.1% acetic acid, and then lysed with 0.1N sodium hydroxide to provide a lysate. The OD540 (i.e., the absorbance at a wavelength of 540 nm) of the lysate was measured. OD540 value of each group represents the content of collagen in each group, reflecting the content of collagen in fibroblast WI38 cells under different circumstances (the relative content of collagen in each group was calculated by serving the result of blank group as 0% and serving the result of control group as 100%).
Myofibroblast WI38 cells were divided into twenty-eight groups and separately cultivated with the following media for 24 hours:
(1) Blank group: a myofibroblast growth medium;
(3) Positive control group; a myofibroblast growth medium containing 1 ng/mL TGF-β and 200 μg/mL Pirfenidone (abbreviated as “Pir”; purchased from Sigma-Aldrich);
(4) Extract C group (including five sub-groups): a myofibroblast growth medium containing 1 ng/mL TGF-β and the extract C provided by [preparation example A-3-2], wherein the extract C is present in the five sub-groups at a concentration of […], 6.25 and 12.5 μg/mL respectively;
(5) Extract D group (including five sub-groups): a myofibroblast growth medium containing 1 ng/mL TGF-β and the extract D provided by [preparation example A-4-2], wherein the extract D is present in the five sub-groups at a concentration of 0.78, 1.56, 3.13, 6.25 and 12.5 μg/mL respectively;
(6) Extract E group (including five sub-groups): a myofibroblast growth medium containing 1 ng/mL TGF-β and the extract E provided by [preparation example A-4-3], wherein the extract E is present in the five sub-groups at a concentration of 0.78, 1.56, 3.13, 6.25 and 12.5 μg/mL respectively; […]

Compound: C=C(CC[C@@H](C(=O)O)[C@H]1[C@H](O)C[C@@]2(C)C3=CC[C@@H](C(=C)C)[C@](C)(CCC(=O)O)C3=CC[C@]12C)C(C)C [PAA, poricoic acid A]
- Relative content of collagen (%) (6.25 μg/mL): 82%
- Relative content of collagen (%) (12.5 μg/mL): 78%
- Relative content of collagen (%) (25 μg/mL): 48%
- Relative content of collagen (%) (50 μg/mL): 0%
- Relative content of collagen (%) (100 μg/mL): 0%
